Series [1] addresses α-glucosidase (EC 3.2.1.20) (Saccharomyces cerevisiae, UniProt P53341). The series is described as follows: biochemical. It is filed as biochemical.
Series [2] deals with T1, α-glucosidase (Saccharomyces cerevisiae, UniProt P53341).
T1 construct: purchased Sigma-Aldrich
The series is described as follows: Kinetic study of α-glucosidase inhibition (Lineweaver–Burk plots). In kind it is biochemical. The following applies: for Type of inhibition: Lineweaver–Burk plots: Vmax not affected, Km increased; for Ki: determined by Lineweaver–Burk plots. The protocol:
The type of inhibition and value of Ki were determined by Lineweaver–Burk plots.
The 10 µL of enzyme solution (1 U/mL) was incubated with different concentrations of compound 43 (0.00 mM,0.012 mM, 0.02 mM, 0.04 mM), 40 (0.00 mM, 0.06 mM, 0.10 mM, 0.20 mM)and 34 (0.00 mM, 0.30 mM, 0.50 mM, 1.00 mM) for 20 min at 37 °C, then added different concentrations of substrate (1 mM, 0.9 mM, 0.75 mM, 0.6 mM, 0.45 mM, 0.3 mM, 0.25 mM), and change in absorbance was measured for 20 min at 405 nm by using spectrophotometer.

Setting [3] is: phosphate buffer pH 6.8, 37 °C, PNPG substrate, mean ± SD, at least three experiments, read-out: IC50 (α-glucosidase inhibitory activity).

SMILES strings stand for the structures. Read-outs that look alike come from different tables or passages of the source.

T1 sequence (P53341 whole entry): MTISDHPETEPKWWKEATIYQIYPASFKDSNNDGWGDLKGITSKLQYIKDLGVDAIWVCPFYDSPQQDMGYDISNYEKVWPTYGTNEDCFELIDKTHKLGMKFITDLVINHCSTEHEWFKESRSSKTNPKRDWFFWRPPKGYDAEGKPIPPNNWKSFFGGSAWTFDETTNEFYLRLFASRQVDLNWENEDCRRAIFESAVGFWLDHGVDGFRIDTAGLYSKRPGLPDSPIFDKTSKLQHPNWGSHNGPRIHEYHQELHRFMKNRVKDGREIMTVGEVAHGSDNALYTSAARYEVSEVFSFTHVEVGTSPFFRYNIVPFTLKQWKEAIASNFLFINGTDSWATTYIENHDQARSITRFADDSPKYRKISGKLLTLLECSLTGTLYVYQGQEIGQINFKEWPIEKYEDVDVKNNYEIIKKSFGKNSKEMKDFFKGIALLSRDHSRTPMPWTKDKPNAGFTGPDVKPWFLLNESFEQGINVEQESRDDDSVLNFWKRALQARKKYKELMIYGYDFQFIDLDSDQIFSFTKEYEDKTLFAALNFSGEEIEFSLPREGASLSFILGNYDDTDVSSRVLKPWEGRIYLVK
Sequence of α-glucosidase (EC 3.2.1.20) (P53341 whole entry): as above

A word on the IC50: it is the concentration at which inhibition is half-maximal. In series [1], `O=C(/C=C/c1ccccc1)OCCN1C[C@H](O)[C@@H](O)[C@H](O)[C@H]1CO` [Compound 25, 2-(3,4,5-Trihydroxy-2-(hydroxymethyl)piperidin-1-yl) ethyl cinnamate] displayed an IC50 of 1094 ± 1.8 µM.

`O=C(/C=C/c1ccccc1)OCCCN1C[C@H](O)[C@@H](O)[C@H](O)[C@H]1CO` [Compound 26, 3-(3,4,5-Trihydroxy-2-(hydroxymethyl)piperidin-1-yl) ethyl cinnamate] registered an IC50 in series [1] of 1099 ± 1.1 µM.

In series [1], `O=C(/C=C/c1ccccc1)OCCCCCCN1C[C@H](O)[C@@H](O)[C@H](O)[C@H]1CO` [Compound 29] displayed an IC50 of 976.5 ± 0.7 µM.

As a reminder, the melting point is the temperature of the solid-liquid transition. Regarding `COC(=O)/C=C/c1ccc(OCCN2CC(O)C(O)C(O)C2CO)cc1` (stereo not drawn) [Compound 30, Methyl(E)-3-(4-(2-(3,4,5-trihydroxy-2-(hydroxymethyl)piperidin-1-yl)ethoxy)phenyl) acrylate], the melting point was 185 to 187 °C. This compound registered an IC50 in series [1] of 1272.2 ± 1.2 µM.

As to `COC(=O)C=Cc1ccc(OCCCN2CC(O)C(O)C(O)C2CO)cc1` (stereo not drawn) [Compound 31], the melting point fell in the range of 104 to 107 °C. The IC50 in series [1] (setting [3]) was over 2000 µM.

Compound `COC(=O)C=Cc1ccc(OCCCCN2CC(O)C(O)C(O)C2CO)cc1` (stereo not drawn) [Compound 32] gave a melting point of 157 to 160 °C. In series [1], inhibition was half-maximal at 667 ± 1.6 µM (IC50).

In the case of `COC(=O)C=Cc1ccc(OCCCCCN2CC(O)C(O)C(O)C2CO)cc1` (stereo not drawn) [Compound 33], the melting point fell in the range of 85 to 86 °C. This compound also yielded an IC50 in series [1] of 602.3 ± 1.2 µM.

What is called Ki is the equilibrium dissociation constant of an inhibitor or competing ligand from its target. Higher therefore signals weaker binding. As to `COC(=O)C=Cc1ccc(OCCCCCCN2CC(O)C(O)C(O)C2CO)cc1` (stereo not drawn) [Compound 34], the melting point was 110 to 113 °C. Further, inhibition in series [1] was half-maximal at 417 ± 0.14 µM (IC50). Also, in series [2], the Type of inhibition result is “competitive inhibitors” and the Ki worked out at 150 µM.

In turn, `CCOC(=O)/C=C/c1ccc(OCCN2CC(O)C(O)C(O)C2CO)c(OC)c1` (stereo not drawn) [Compound 35, Ethyl(E)-3-(3-methoxy-4-(2-(3,4,5-trihydroxy-2-(hydroxymethyl)piperidin-1-yl)ethoxy)phenyl)acrylate] gave a melting point of 146 to 148 °C. Further, the IC50 in series [1] was 966.2 ± 0.4 µM.

As to `CCOC(=O)C=Cc1ccc(OCCCN2CC(O)C(O)C(O)C2CO)c(OC)c1` (stereo not drawn) [Compound 36], the IC50 in series [1] (setting [3]) was over 2000 µM.

Take `CCOC(=O)C=Cc1ccc(OCCCCN2CC(O)C(O)C(O)C2CO)c(OC)c1` (stereo not drawn) [Compound 37]: the IC50 in series [1] (setting [3]) was over 2000 µM.

Consider `CCOC(=O)C=Cc1ccc(OCCCCCN2CC(O)C(O)C(O)C2CO)c(OC)c1` (stereo not drawn) [Compound 38], for which the IC50 in series [1] (setting [3]) is over 2000 µM.

Consider `CCOC(=O)C=Cc1ccc(OCCCCCCN2CC(O)C(O)C(O)C2CO)c(OC)c1` (stereo not drawn) [Compound 39, Ethyl(E)-3-(3-methoxy-4-(6-(3,4,5-trihydroxy-2-(hydroxymethyl)piperidin-1-yl)ethoxy)phenyl)acrylate], for which the IC50 in series [1] (setting [3]) is over 2000 µM.

In the case of `O=C(/C=C/c1ccccc1)c1ccccc1OCCN1CC(O)C(O)C(O)C1CO` (stereo not drawn) [Compound 40, (E)-3-phenyl-1-(2-(2-(3,4,5-trihydroxy-2-(hydroxymethyl)piperidin-1-yl)ethoxy)phenyl)prop-2-en-1-one], in series [1], the IC50 was found to be 160.5 ± 0.6 µM and the “fold more active than acarbose” value is reported as “around 5 fold”. Moreover, in series [2], the Type of inhibition result is “competitive inhibitors” and the Ki is 52 µM.

Take `O=C(C=Cc1ccccc1)c1ccccc1OCCCCCN1CC(O)C(O)C(O)C1CO` (stereo not drawn) [Compound 43]: in series [1], the IC50 came to 30 ± 0.6 µM, the “fold more active than 1-DNJ” value is given as about 7 fold and the “fold more active than acarbose” value is listed as about 27 fold. In series [2], the Type of inhibition entry is listed as “competitive inhibitors” and the Ki amounted to 10 µM.

The record behind these values is publication PMC7580737, “Synthesis, in vitro inhibitory activity, kinetic study and molecular docking of novel N-alkyl–deoxynojirimycin derivatives as potential α-glucosidase inhibitors” (Journal of Enzyme Inhibition and Medicinal Chemistry, 2020).
